{"source": "patent US20250066452A1", "about": "“SYNTHETIC AMPHIPATHIC HELICAL PEPTIDES AND TREATMENT METHODS USING SYNTHETIC AMPHIPATHIC HELICAL PEPTIDES” (UNIVERSITY OF MARYLAND, BALTIMORE, priority 2022, published 2025)", "key": {"mice": {"tested_on": "mice", "experiment": "Observation of adverse effects on repetitive daily skin application", "format": "in vivo"}, "[1]": {"tested_on": "Complete Freund's Adjuvant (CFA) animal model of chronic inflammatory pain", "experiment": "Thermal hyperalgesia test (incremental hot plate) in CFA model of chronic inflammatory pain", "format": "in vivo, mice", "details": "for heat hyperalgesia compared to the inactive L3D-L37pA peptide: Example 3, FIGS. 5(a)-5(e), topical application once a day; for withdrawal latencies to thermal stimuli: CFA in left paw", "description": "The L37pA peptide having the sequence […] (SEQ ID NO: 2) was synthesized by a solid-phase procedure. […] The L37pA and L3D-37pA peptides were formulated into both an intramuscular injectable preparation and a hydrogel or lotion preparation. The intramuscular (IM) injectable formulation contains 0.5 μg/μl of the peptide, with an injection dose of 2 μl/g mouse weight, which equals approximately 20 μg peptide per injection. The hydrogel and lotion formulations each contains 0.2 mg/ml of the peptide. 20-50 μl of the formulations are applied, which is approximately 4-10 μg peptide per single skin treatment. Topical hydrogel and lotion formulations containing a vehicle without any peptide were prepared as additional negative controls.\nIn this experiment, the peptide was administered via intramuscular injections. The first group of mice (“CFA group”) were injected with 30 μl of Complete Freund's Adjuvant (CFA) in the plantar surface of the left hind paw. The second group of mice (“Vehicle Group”) were injected with Vehicle (saline) instead of CFA. For each of the CFA and Vehicle Groups, the mice were then injected once a day with the following formulations, with “n” representing the number of mice receiving each formulation: […]\nThermal hyperalgesia was performed before the CFA injection. The measurement of baseline thermosensitivity was actually carried out before time 0, but it was assumed that the baseline remained the same at time 0. Injection of CFA in the paw and the intramuscular injection of peptide were performed at the same time. Injections of CFA and peptides were performed in left paws. The right paws of the mice remained intact and were used for comparison.\nAfter administering the L37pA or L3D-37pA peptide, the thermal hyperalgesia test was performed for 30 minutes at 3, 24, and 72 hours post CFA-injection. In the thermal hyperalgesia test, an incremental hot plate with an automatic cut-off temperature of 50° C. was used to induce the nocifensive behaviors of licking a hind paw to identify the thresholds for noxious heat and assess the thermal hyperalgesia. The temperature of the plate at the time when the licking occurred was recorded. The peptides were injected every single day and at 30 minutes prior to the behavior test. In addition, to investigate the effects of the peptides on inflammatory swelling caused by the CFA injection, the thicknesses of the left and right hind paws of the mice were measured post-peptide administration for signs of inflammation. In the figures, *p≤0.05, **p≤0.01, and ***p≤0.001 show comparisons to the Vehicle/L3D-37pA controls at each timepoint.\nIn this experiment, the peptide was administered topically once a day. The first group of mice (“CFA group”) were injected with 30 μl of Complete Freund's Adjuvant (CFA) in the plantar surface of the left hind paw. The second group of mice (“Vehicle Group”) were injected with Vehicle (saline) instead of CFA. For each of the CFA and Vehicle groups, the topical formulation was then administered to the mice according to the following experiment design:\nThe topical application of the peptides was carried out 21 hours after the saline or CFA injection and applied […] in the following days. In case of topical application of peptide, the peptides were applied 3 hours before the second measurement of thermosensitivity and applied […] afterwards. Thermal hyperalgesia was performed before administration and after administering the L37pA, L3D-37 pA, or vehicle, at 30 minutes after administration. The thermal hyperalgesia test was performed as described above. In addition, the thicknesses of the left and right hind paws of the mice were measured post-peptide administration for signs of inflammation. In the figures, *p 0.05, **p 0.01, and ***p 0.001 show comparisons to the saline/L3D-37pA controls at each timepoint.\nThe applicant performed heat hyperalgesia tests similar to the manner discussed above in Example 1. […]"}, "CD36": {"target": "T1, CD36 (Homo sapiens, UniProt P16671)", "T1 construct": "expressed in transfected cells; host or cells: HEK293", "T1 sequence (P16671 whole entry)": "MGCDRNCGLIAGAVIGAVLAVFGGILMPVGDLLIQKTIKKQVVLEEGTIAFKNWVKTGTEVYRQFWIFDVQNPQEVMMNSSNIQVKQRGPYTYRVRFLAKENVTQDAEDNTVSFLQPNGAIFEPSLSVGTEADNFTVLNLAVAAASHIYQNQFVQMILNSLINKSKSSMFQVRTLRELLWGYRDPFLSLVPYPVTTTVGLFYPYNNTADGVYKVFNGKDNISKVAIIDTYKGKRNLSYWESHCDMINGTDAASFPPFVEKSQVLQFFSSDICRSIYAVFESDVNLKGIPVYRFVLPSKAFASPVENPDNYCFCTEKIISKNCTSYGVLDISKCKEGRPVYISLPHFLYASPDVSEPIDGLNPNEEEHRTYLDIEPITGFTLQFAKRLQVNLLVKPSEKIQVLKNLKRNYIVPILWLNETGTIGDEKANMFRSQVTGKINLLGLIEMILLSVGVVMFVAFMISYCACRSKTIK", "experiment": "IL-8 in conditioned medium (ELISA) of CD36-expressing HEK293 cells after 20 hours incubation with CD36 ligands", "format": "cell-based", "details": "for IL-8 produced by cells treated with the ligand: CD36-expressing HEK293 cells, increasing ligand concentrations, 20 hours (FIG. 8)", "description": "(§1) Following 20 hours incubation of wild-type (WT) and CD36-expressing (CD36+) HEK293 cells with increasing concentrations of CD36 ligands, the IL-8 levels were determined in conditioned medium by ELISA.\nFollowing 20 hours incubation of CD36-expressing cells with the indicated amounts of the ligands, the IL-8 levels were determined in conditioned medium.\n(§2) To study this, the applicant conducted cell culture experiments using wildtype (WT) and CD36+ expressing (CD36+) HEK293 cells, treated with increasing amounts of CD36 ligands. Specifically, the ligands tested were the PAMP lipopolysaccharide (LPS) and the DAMPs high mobility group box 1 protein (HMGB1), Histone H3B, and heat shock protein 60 (HSP60). […] Similarly to HSP60, it is presumed that HSP70 and HSP90 also cause inflammation mediated by the CD36 receptor, and which may be alleviated by the disclosed peptides.\nAdditionally, the applicant studied the effects of the above-referenced SAHP L37pA as an inhibitor of CD36-dependent, PAMP/DAMP-induced pro-inflammatory response. See FIGS. 9(a)-9(c) To study this, the applicant conducted cell culture experiments using CD36+ HEK293 cells, treated with increasing amounts of CD36 ligands. […] As controls, no treatment, L37pA alone, and L3D alone were administered.\nAs controls, no treatment, L37pA alone, and L3D alone were administered. […] L37pA was especially effective in the case of 1 μg/ml and 2.5 μg/ml HMGB1, relative to administrations of HMGB1 alone.\nIn FIG. 9(c), the DAMP Histone H3B was administered in the amount of 25 μg/ml alone, in combination with 10 μg/ml L37pA, 25 μg/ml L37pA, 10 μg/ml L3D and 25 µg/ml L3D. As controls, no treatment, 10 μg/ml L37pA alone, 25 μg/ml L37pA alone, 10 μg/ml L3D alone, and 25 μg/ml L3D alone were administered."}, "[2]": {"tested_on": "wild-type (WT) HEK293 cells", "experiment": "IL-8 in conditioned medium (ELISA) of wild-type HEK293 cells after 20 hours incubation with CD36 ligands", "format": "cell-based", "details": "wildtype HEK293 cells; increasing ligand concentrations; 20 hours (FIG. 8)", "description": "as §1, §2"}}, "note": "No end group written: not given here.", "data": [{"substance": "DWLKAFYDKVAEKLKEAFPDWLKAFYDKVAEKLKEAF [Peptide L37pA]", "values": [{"measurement": "skin irritation or other adverse side effects", "setting": "mice; chronic topical administration in the therapeutic range of doses", "result": "does not induce skin irritation or other adverse side effects"}, {"measurement": "adverse effects (general toxicity, behavioral changes, weight loss, skin redness, skin erosions)", "setting": "mice; up to 14 repetitive daily skin applications of hydrogel formulation", "result": "no adverse effects"}]}, {"substance": "EKLLELLKKLLELLKKLLPDWLKAFYDKVAEKLKEAF [ELK-B-P-18A]", "values": [{"measurement": "heat hyperalgesia compared to the inactive L3D-L37pA peptide", "setting": "[1]; CFA", "result": "improved heat hyperalgesia compared to the inactive L3D-L37pA peptide at 3 hours, and particularly improved heat hyperalgesia at 7 days"}]}, {"substance": "EKLLELLKKLLELLKKLLPEKLLELLKKLLELLKKLL [ELK-B]", "values": [{"measurement": "heat hyperalgesia compared to the inactive L3D-L37pA peptide", "setting": "[1]; CFA", "result": "slightly improved heat hyperalgesia compared to the active L3D-L37pA peptide at 1 day, and similar heat hyperalgesia at other timepoints"}]}, {"substance": "L3D-37pA: inactive L37pA peptide where three L-lysine's in each A18 were replaced with D-lysine's disrupting the helical structure; negative control (DWLKAFYDKVAEKLKEAFPDWLKAFYDKVAEKLKEAF; also: three of the four Lys in each A18 segment are D-Lys, places not given here) [Peptide L3D-37pA]", "values": [{"measurement": "production of IL-8 relative to LPS alone", "setting": "CD36; 10 ng/ml and 100 ng/ml LPS, 10 μg/ml peptide, CD36+ HEK293 cells, 20 hours", "result": "ineffective or only slightly effective"}, {"measurement": "production of IL-8 relative to Histone H3B alone", "setting": "CD36; 25 μg/ml Histone H3B, 10 μg/ml and 25 μg/ml peptide, CD36+ HEK293 cells, 20 hours", "result": "ineffective or only slightly effective"}, {"measurement": "production of IL-8 relative to HMGB1 alone", "setting": "CD36; 0.25, 1 and 2.5 μg/ml HMGB1, 10 μg/ml peptide, CD36+ HEK293 cells, 20 hours", "result": "ineffective or only slightly effective"}, {"measurement": "withdrawal latencies to thermal stimuli", "setting": "[1]; intramuscular peptide approx. 20 μg per injection once a day, 3 hours after CFA (FIG. 2(a))", "result": "reduction was even more exaggerated"}, {"measurement": "withdrawal latencies to thermal stimuli", "setting": "[1]; intramuscular peptide approx. 20 μg per injection once a day, 24 hours after CFA (FIG. 2(a))", "result": "only showed a minimal increase"}, {"measurement": "withdrawal latencies to thermal stimuli", "setting": "[1]; intramuscular peptide approx. 20 μg per injection once a day, three days after CFA (FIG. 2(a))", "result": "still showed a significant reduction of withdrawal latencies"}, {"measurement": "withdrawal latencies to thermal stimuli", "setting": "[1]; topical application 0.2 mg/ml, 24 hours and 3 days after CFA (FIG. 3(a))", "result": "remained reduced with only slight increase"}, {"measurement": "pain sensation in response to stimuli", "setting": "[1]; CFA model, topical hydrogel or lotion, and local intramuscular injection", "result": "did not show any pain-reducing activities"}, {"measurement": "paw withdrawal temperature of inflamed paws", "setting": "[1]; CFA, topical hydrogel or local intramuscular injection, within 3 days post-CFA (FIGS. 2(a), 3(a))", "result": "without effect"}, {"measurement": "heat hyperalgesia (response temperature)", "setting": "[1]; Example 2, FIG. 4, CFA, intramuscular injection, 24 h, 3 d, 7 d", "result": "did not reduce heat hyperalgesia at any time point"}]}, {"substance": "high mobility group box 1 protein [HMGB1]", "values": [{"measurement": "IL-8 produced by cells treated with the ligand", "setting": "CD36", "result": "significant amount of IL-8"}, {"measurement": "IL-8 produced by cells treated with the ligand", "setting": "[2]", "result": "minimal amount of interleukin 8"}]}, {"substance": "lipopolysaccharide [LPS]", "values": [{"measurement": "IL-8 produced by cells treated with the ligand", "setting": "CD36", "result": "significant amount of IL-8"}, {"measurement": "IL-8 produced by cells treated with the ligand", "setting": "[2]", "result": "minimal amount of interleukin 8"}]}]}
